Measurements reported in the NIST ThermoML archive (doi:10.1021/je700266n).

Columns and labels:
[1] = 101 kPa, Liquid
[2] = xn = mol fraction of the nth substance listed; details: 101 kPa, Liquid

CCCCn1cc[n+](C)c1.F[P-](F)(F)(F)(F)F [1-butyl-3-methylimidazolium hexafluorophosphate]
[1]
Details | mass density [kg/m3]
293.15 K | 1371.57
298.15 K | 1367.22
303.15 K | 1362.86
308.15 K | 1358.56
313.15 K | 1354.3
323.15 K | 1345.98
333.15 K | 1337.7
343.15 K | 1330.76

CCCCn1cc[n+](C)c1.F[P-](F)(F)(F)(F)F [1-butyl-3-methylimidazolium hexafluorophosphate] + c1ccccc1
mass density [kg/m3], [2]
Details | 293.15 K | 298.15 K | 303.15 K | 308.15 K | 313.15 K | 323.15 K | 333.15 K | 343.15 K
x1 = 0.34 | 1166.34 | 1161.8 | 1157.16 | 1152.56 | 1148.35 | 1139.5 | 1129.94 | 1120.87
x1 = 0.3995 | 1197.59 | 1193.15 | 1188.62 | 1184.16 | 1180.04 | 1171.45 | 1162.13 | 1153.45
x1 = 0.4999 | 1239.2 | 1234.86 | 1230.38 | 1226.01 | 1222.02 | 1213.65 | 1204.95 | 1196.96
x1 = 0.5999 | 1274.25 | 1269.99 | 1265.61 | 1261.3 | 1257.39 | 1249.14 | 1240.67 | 1233.13
x1 = 0.7 | 1304.29 | 1299.95 | 1295.6 | 1291.34 | 1287.35 | 1279.03 | 1270.76 | 1263.66
x1 = 0.8003 | 1329.79 | 1325.97 | 1321.58 | 1317.28 | 1313.09 | 1304.76 | 1296.68 | 1289.79
x1 = 0.9001 | 1351.51 | 1347.29 | 1342.85 | 1338.55 | 1334.45 | 1326.2 | 1317.85 | 1310.77
x1 = 1 | 1371.57 | 1367.22 | 1362.86 | 1358.56 | 1354.3 | 1345.98 | 1337.7 | 1330.76

CCCCn1cc[n+](C)c1.F[B-](F)(F)F [1-butyl-3-methylimidazolium tetrafluoroborate]
[1]
Details | mass density [kg/m3]
293.15 K | 1195.71
298.15 K | 1192.07
303.15 K | 1188.37
308.15 K | 1184.72
313.15 K | 1181.43
323.15 K | 1174.49
333.15 K | 1166.89
343.15 K | 1159.97

CCCCn1cc[n+](C)c1.F[B-](F)(F)F [1-butyl-3-methylimidazolium tetrafluoroborate] + CCCO
mass density [kg/m3], [2]
Details | 293.15 K | 298.15 K | 303.15 K | 308.15 K | 313.15 K | 323.15 K | 333.15 K | 343.15 K
x1 = 0.3999 | 1054.66 | 1051.03 | 1047.17 | 1043.37 | 1039.88 | 1032.41 | 1024.28 | 1016.75
x1 = 0.4498 | 1072.68 | 1068.9 | 1065.03 | 1061.22 | 1057.72 | 1050.32 | 1042.29 | 1034.83
x1 = 0.5001 | 1089.08 | 1085.28 | 1081.39 | 1077.57 | 1074.09 | 1066.73 | 1058.77 | 1051.38
x1 = 0.6001 | 1117.7 | 1113.99 | 1110.15 | 1106.39 | 1103.01 | 1095.73 | 1087.82 | 1080.57
x1 = 0.6978 | 1141.41 | 1137.71 | 1133.91 | 1130.15 | 1126.78 | 1119.64 | 1111.83 | 1104.68
x1 = 0.8002 | 1163 | 1159.35 | 1155.61 | 1151.92 | 1148.61 | 1141.54 | 1133.81 | 1126.78
x1 = 0.9003 | 1180.65 | 1176.99 | 1173.25 | 1169.56 | 1166.26 | 1159.25 | 1151.58 | 1144.59
x1 = 1 | 1195.71 | 1192.07 | 1188.37 | 1184.72 | 1181.43 | 1174.49 | 1166.89 | 1159.97

CCCCn1cc[n+](C)c1.F[B-](F)(F)F [1-butyl-3-methylimidazolium tetrafluoroborate] + c1ccccc1
mass density [kg/m3], [2]
Details | 293.15 K | 298.15 K | 303.15 K | 308.15 K | 313.15 K | 323.15 K | 333.15 K | 343.15 K
x1 = 0.4871 | 1105.2 | 1101.28 | 1097.21 | 1093.23 | 1089.58 | 1081.9 | 1073.73 | 1065.72
x1 = 0.5499 | 1120.99 | 1117.14 | 1113.2 | 1109.3 | 1105.72 | 1098.23 | 1090.17 | 1082.51
x1 = 0.5999 | 1132.31 | 1128.5 | 1124.57 | 1120.71 | 1117.22 | 1109.81 | 1101.75 | 1094.35
x1 = 0.7001 | 1151.84 | 1148.13 | 1144.26 | 1140.47 | 1137.04 | 1129.83 | 1121.95 | 1114.7
x1 = 0.8 | 1168.73 | 1165.02 | 1161.24 | 1157.48 | 1154.13 | 1147.03 | 1139.28 | 1132.17
x1 = 0.899 | 1182.8 | 1179.15 | 1175.38 | 1171.67 | 1168.35 | 1161.36 | 1153.64 | 1146.64
x1 = 0.9498 | 1189.44 | 1185.85 | 1182.12 | 1178.45 | 1175.16 | 1168.19 | 1160.54 | 1153.58
x1 = 1 | 1195.71 | 1192.07 | 1188.37 | 1184.72 | 1181.43 | 1174.49 | 1166.89 | 1159.97

CC#N [acetonitrile] + CCCCn1cc[n+](C)c1.F[B-](F)(F)F
[2], x2 = 0
Details | mass density [kg/m3]
293.15 K | 782.3
298.15 K | 776.93
303.15 K | 771.44
308.15 K | 765.97
313.15 K | 760.68
323.15 K | 749.73
333.15 K | 738.19
343.15 K | 726.94

c1ccccc1 [benzene] + CCCCn1cc[n+](C)c1.F[B-](F)(F)F
[2], x2 = 0
Details | mass density [kg/m3]
293.15 K | 878.23
298.15 K | 873.11
303.15 K | 867.59
308.15 K | 862.21
313.15 K | 856.82
323.15 K | 846.05
333.15 K | 835.76
343.15 K | 824.89

CCCCn1cc[n+](C)c1.F[B-](F)(F)F [1-butyl-3-methylimidazolium tetrafluoroborate] + CC#N
mass density [kg/m3], [2]
Details | x1 = 0.1 | x1 = 0.1997 | x1 = 0.3 | x1 = 0.4005 | x1 = 0.4995 | x1 = 0.6015 | x1 = 0.6998 | x1 = 0.799 | x1 = 0.9012 | x1 = 1
293.15 K | 913.54 | 993.5 | 1047.76 | 1086.95 | 1116.42 | 1138.87 | 1156.73 | 1171.64 | 1185.23 | 1195.71
298.15 K | 908.78 | 989.03 | 1043.55 | 1082.89 | 1112.51 | 1135.03 | 1152.98 | 1167.96 | 1181.58 | 1192.07
303.15 K | 903.94 | 984.51 | 1039.25 | 1078.74 | 1108.44 | 1131.08 | 1149.11 | 1164.16 | 1177.8 | 1188.37
308.15 K | 899.1 | 980.03 | 1034.99 | 1074.62 | 1104.46 | 1127.17 | 1145.29 | 1160.39 | 1174.09 | 1184.72
313.15 K | 894.51 | 975.82 | 1031.1 | 1070.84 | 1100.65 | 1123.64 | 1141.82 | 1157 | 1170.73 | 1181.43
323.15 K | 885.05 | 967.07 | 1022.86 | 1062.98 | 1093.19 | 1116.23 | 1134.55 | 1149.88 | 1163.8 | 1174.49
333.15 K | 874.91 | 957.71 | 1013.98 | 1054.45 | 1084.93 | 1108.14 | 1126.63 | 1142.09 | 1156.07 | 1166.89
343.15 K | 866.42 | 948.85 | 1005.39 | 1046.32 | 1077.27 | 1100.67 | 1119.31 | 1134.92 | 1149.06 | 1159.97

CC#N [acetonitrile] + CCCCn1cc[n+](C)c1.F[P-](F)(F)(F)(F)F
[2], x2 = 0
Details | mass density [kg/m3]
293.15 K | 782.3
298.15 K | 776.93
303.15 K | 771.44
308.15 K | 765.97
313.15 K | 760.68
323.15 K | 749.73
333.15 K | 738.19
343.15 K | 726.94

c1ccccc1 [benzene] + CCCCn1cc[n+](C)c1.F[P-](F)(F)(F)(F)F
[2], x2 = 0
Details | mass density [kg/m3]
293.15 K | 878.23
298.15 K | 873.11
303.15 K | 867.59
308.15 K | 862.21
313.15 K | 856.82
323.15 K | 846.05
333.15 K | 835.76
343.15 K | 824.89

CCCO [propan-1-ol] + CCCCn1cc[n+](C)c1.F[B-](F)(F)F
[2], x2 = 0
Details | mass density [kg/m3]
293.15 K | 804.97
298.15 K | 801.01
303.15 K | 796.89
308.15 K | 792.83
313.15 K | 789.07
323.15 K | 780.74
333.15 K | 771.75
343.15 K | 762.86

CCCCn1cc[n+](C)c1.F[P-](F)(F)(F)(F)F [1-butyl-3-methylimidazolium hexafluorophosphate] + CC#N
mass density [kg/m3], [2]
Details | x1 = 0.1 | x1 = 0.1997 | x1 = 0.3001 | x1 = 0.4002 | x1 = 0.4995 | x1 = 0.5996 | x1 = 0.7001 | x1 = 0.8 | x1 = 0.8992 | x1 = 1
293.15 K | 974.06 | 1089.47 | 1167.16 | 1221.32 | 1261.57 | 1293.48 | 1318.51 | 1339.25 | 1356.81 | 1371.57
298.15 K | 969.05 | 1084.37 | 1162.48 | 1216.77 | 1257.1 | 1289.08 | 1314.15 | 1334.92 | 1352.54 | 1367.22
303.15 K | 963.9 | 1079.44 | 1157.73 | 1212.1 | 1252.55 | 1284.55 | 1309.69 | 1330.47 | 1348.19 | 1362.86
308.15 K | 958.79 | 1074.57 | 1153.01 | 1207.52 | 1248.07 | 1280.12 | 1305.51 | 1326.23 | 1343.83 | 1358.56
313.15 K | 953.96 | 1070.04 | 1148.67 | 1203.29 | 1243.97 | 1276.12 | 1301.33 | 1322.21 | 1339.74 | 1354.3
323.15 K | 943.95 | 1060.53 | 1139.57 | 1194.5 | 1235.37 | 1267.65 | 1292.68 | 1313.73 | 1331.33 | 1345.98
333.15 K | 933.35 | 1050.42 | 1129.8 | 1184.99 | 1226.09 | 1258.64 | 1283.91 | 1305.14 | 1323.02 | 1337.7
343.15 K | 923.24 | 1040.99 | 1120.72 | 1176.43 | 1217.82 | 1250.62 | 1276.41 | 1297.84 | 1315.94 | 1330.76
